Assay results as given in patent EP4624465A1, “COMPOUND SERVING AS DDR1 KINASE INHIBITOR, AND MEDICINE” (Nippon Shinyaku Co., Ltd., priority 2022, dated 2024).
Several values for one entry are separate records, joined by “and”; a condition that tells them apart may be missing. Equal values may be shown once. Where a name gives a salt, the structure may show the parent alone.

Experiments:
DDR1 kinase [1] = biological target: T1, DDR1 kinase (Homo sapiens, UniProt Q08345); test: Evaluation of DDR1 kinase inhibition in DDR1-expressing U2OS cells (type I collagen stimulation, PathHunter detection); assay type: cell-based; set-up: host or cells: U2OS; settings: type I collagen 50 µg/mL stimulation, duplicate, read-out: DDR-1 IC50
Description: The solution was further diluted in an E-MEM medium (Fujifilm Wako Pure Chemicals, 051-07615) containing 10% fetal bovine serum (FBS, Gibco, 10270106) to 60000, 6000, 600, 60, 6, and 0.6 nM to prepare test substance solutions. 2. […] On the following day, after the plate was left at room temperature for 1 hour, a detection solution was added to the wells at […] according to the handling instructions for the PathHunter® Detection Kit (DiscoverX, 93-0001), and then incubated at room temperature for 2 hours. After the incubation, a luminescence intensity was measured by Envision (Perkin-Elmer). Tests were performed in duplicate. 3.
Target sequence in this assay (Q08345 19-913): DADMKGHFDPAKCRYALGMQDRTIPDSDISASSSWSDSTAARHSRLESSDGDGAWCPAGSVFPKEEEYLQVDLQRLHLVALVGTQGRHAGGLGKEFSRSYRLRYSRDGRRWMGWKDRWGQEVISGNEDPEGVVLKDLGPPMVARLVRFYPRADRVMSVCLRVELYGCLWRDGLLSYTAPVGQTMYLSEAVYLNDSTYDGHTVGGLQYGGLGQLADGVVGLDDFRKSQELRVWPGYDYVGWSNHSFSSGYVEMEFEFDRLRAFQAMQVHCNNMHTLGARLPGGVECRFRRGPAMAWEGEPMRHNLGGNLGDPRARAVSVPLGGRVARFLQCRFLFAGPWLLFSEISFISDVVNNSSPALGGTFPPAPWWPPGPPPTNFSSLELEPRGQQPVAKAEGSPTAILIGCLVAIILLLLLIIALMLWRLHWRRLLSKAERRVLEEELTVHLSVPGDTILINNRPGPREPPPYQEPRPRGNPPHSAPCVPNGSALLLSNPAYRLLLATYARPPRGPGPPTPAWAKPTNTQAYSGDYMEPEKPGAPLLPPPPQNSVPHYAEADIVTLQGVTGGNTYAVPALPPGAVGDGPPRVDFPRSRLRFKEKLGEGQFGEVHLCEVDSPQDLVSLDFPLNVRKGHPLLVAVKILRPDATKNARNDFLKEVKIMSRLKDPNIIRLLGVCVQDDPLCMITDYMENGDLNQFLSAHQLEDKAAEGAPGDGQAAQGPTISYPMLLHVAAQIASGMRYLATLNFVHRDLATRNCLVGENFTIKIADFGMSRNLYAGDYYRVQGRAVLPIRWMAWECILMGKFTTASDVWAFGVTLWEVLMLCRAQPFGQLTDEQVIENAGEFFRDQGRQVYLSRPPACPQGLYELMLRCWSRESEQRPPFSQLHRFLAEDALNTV

DDR1 kinase [2] = biological target: T1, DDR1 kinase; test: Evaluation of DDR1 kinase inhibition (LANCE Ultra TR-FRET kinase assay); assay type: biochemical; set-up: purchased Carna Biosciences 08-113; settings: DDR1 protein 0.5 nM, LANCE Ultra ULight-poly GAT substrate, 2 hours at room temperature, duplicate; read-out: DDR-1 IC50
Target sequence in this assay (Q08345 19-876 isoform Q08345-2 limits assumed): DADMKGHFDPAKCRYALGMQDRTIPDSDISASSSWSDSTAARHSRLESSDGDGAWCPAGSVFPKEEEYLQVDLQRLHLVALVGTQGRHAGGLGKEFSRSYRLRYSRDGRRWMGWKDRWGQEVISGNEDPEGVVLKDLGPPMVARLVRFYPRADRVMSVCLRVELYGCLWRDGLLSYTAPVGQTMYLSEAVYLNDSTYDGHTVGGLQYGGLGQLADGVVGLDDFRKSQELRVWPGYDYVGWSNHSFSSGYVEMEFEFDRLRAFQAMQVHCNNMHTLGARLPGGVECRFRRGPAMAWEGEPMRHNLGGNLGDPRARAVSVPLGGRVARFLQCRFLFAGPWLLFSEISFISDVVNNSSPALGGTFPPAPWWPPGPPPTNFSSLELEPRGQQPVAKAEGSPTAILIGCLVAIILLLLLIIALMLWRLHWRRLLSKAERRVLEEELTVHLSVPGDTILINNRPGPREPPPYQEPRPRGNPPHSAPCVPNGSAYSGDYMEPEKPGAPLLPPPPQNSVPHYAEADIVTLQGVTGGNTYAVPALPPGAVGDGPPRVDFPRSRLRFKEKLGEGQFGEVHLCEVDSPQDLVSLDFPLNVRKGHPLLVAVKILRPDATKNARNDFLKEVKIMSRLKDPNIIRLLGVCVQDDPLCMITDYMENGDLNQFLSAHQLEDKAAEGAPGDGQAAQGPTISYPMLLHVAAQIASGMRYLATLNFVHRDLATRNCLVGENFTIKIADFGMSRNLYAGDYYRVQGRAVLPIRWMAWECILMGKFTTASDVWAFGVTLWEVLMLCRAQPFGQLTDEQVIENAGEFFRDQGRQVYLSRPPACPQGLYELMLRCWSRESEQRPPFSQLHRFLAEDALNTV

IC50 (DDR1 kinase [1]) | IC50 (DDR1 kinase [2]) [µM] | Compound
0.15 µM | 0.023 | Nc1cc(C(=O)N2CC(c3nn(Cc4nc(-c5cccc(C(F)(F)F)c5)no4)c4cccc(F)c34)C2)ccn1 [Compound E-55, 4-{3-[4-fluoro-1-({3-[3-(trifluoromethyl)phenyl]-1,2,4-oxadiazol-5-yl}methyl)-1H-indazol-3-yl]azetidine-1-carbonyl}pyridin-2-amine]
0.17 µM | 0.0054 | CN(CC(F)(F)F)C(=O)Cn1nc(C2CN(C(=O)c3cc(N)ncc3F)C2)c2c(F)cccc21 [Compound E-59, 2-{3-[1-(2-amino-5-fluoropyridine-4-carbonyl)azetidin-3-yl]-4-fluoro-1H-indazol-1-yl}-N-methyl-N-(2,2,2-trifluoroethyl)acetamide]
0.96 µM and 1.6 µM | 0.0028 | O=C(Cn1nc(C2CN(C(=O)c3ccnc4[nH]ccc34)C2)c2c(Cl)cccc21)NCC(F)(F)F [Compound E-61]
0.14 µM | 0.0043 | CNc1cc(C(=O)N2CC(c3nn(CC(=O)NCC(F)(F)F)c4cccc(Cl)c34)C2)ccn1 [Compound E-63, 2-(4-chloro-3-{1-[2-(methylamino)pyridine-4-carbonyl]azetidin-3-yl]-1H-indazol-1-yl)-N-(2,2,2-trifluoroethyl)acetamide]
0.18 µM | 0.062 | CCNc1cc(C(=O)N2CC(c3nn(CC(=O)NCC(F)(F)F)c4cccc(Cl)c34)C2)ccn1 [Compound E-64, 2-(4-chloro-3-(1-[2-(ethylamino)pyridine-4-carbonyl]azetidin-3-yl}-1H-indazol-1-yl)-N-(2,2,2-trifluoroethyl)acetamide hydrochloride]
0.041 µM | 0.0019 | O=C(Cn1nc(C2CN(C(=O)c3ccnc(NC4CC4)c3)C2)c2c(F)cccc21)NCC(F)(F)F [Compound E-65, 2-(3-{1-[2-(cyclopropylamino)pyridine-4-carbonyl]azetidin-3-yl}-4-fluoro-1H-indazol-1-yl)-N-(2,2,2-trifluoroethyl)acetamide hydrochloride]
0.008 µM | 0.0038 | O=C(Cn1nc(C2CN(C(=O)c3ccnc(NC4CCC4)c3)C2)c2c(F)cccc21)NCC(F)(F)F [Compound E-68, 2-(3-{1-[2-(cyclobutylamino)pyridine-4-carbonyl]azetidin-3-yl}-4-fluoro-1H-indazol-1-yl)-N-(2,2,2-trifluoroethyl)acetamide hydrochloride]
0.12 µM | 0.0017 | Nc1cc(C(=O)N2CC(c3nn(CC(=O)NCC(F)(F)F)c4ccc(F)c(Br)c34)C2)ccn1 [Compound E-70, 2-{3-[1-(2-aminopyridine-4-carbonyl)azetidin-3-yl]-4-bromo-5-fluoro-1H-indazol-1-yl}-N-(2,2,2-trifluoroethyl)acetamide hydrochloride]
0.2 µM | 0.0085 | O=C(c1ccnc(NC2CC2)c1)N1CC(c2nn(CC(=O)N3CCC[C@H]3C(F)(F)F)c3cc(F)cc(F)c23)C1 [Compound E-72, 2-(3-{1-[2-(cyclopropylamino)pyridine-4-carbonyl]azetidin-3-yl)-4,6-difluoro-1H-indazol-1-yl)-1-[(2S)-2-(trifluoromethyl)pyrrolidin-1 - yllethan-1-one hydrochloride]
0.013 µM | 0.0056 | Nc1cc(C(=O)N2CC(c3nn(CC(=O)N4CCO[C@@H](C(F)(F)F)C4)c4cc(F)cc(F)c34)C2)ccn1 [Compound E-73, 2-(3-[1-(2-aminopyridine-4-carbonyl)azetidin-3-yl]-4,6-difluoro-1H-indazol-1-yl}-1-l(2R)-2-(trifluoromethyl)morpholin-4-yl]ethan-1-one hydrochloride]
0.033 µM | 0.015 | O=C(c1ccnc(NC2CCC(F)(F)CC2)c1)N1CC(c2nn(CC(=O)N3CCC[C@H]3C(F)(F)F)c3cc(F)cc(F)c23)C1 [Compound E-75, 2-[3-(1-{2-[(4,4-difluorocyclohexyl)aminolpyridine-4-carbonyl}azetidin-3-yl)-4,6-difluoro-1H-indazol-1-yl]-1-[(2S)-2-(trifluoromethyl)pyrrolidin-1-yl]ethan-1-one hydrochloride]
1.3 µM | 0.1 | Nc1cc(C(=O)N2CC(c3nn(CC(=O)N4CCCC4)c4cc(F)cc(F)c34)C2)ccn1 [Compound E-76, 2-{3-[1-(2-aminopyridine-4-carbonyl)azetidin-3-yl]-4,6-difluoro-1H-indazol-1-yl}-1-(pyrrolidin-1-yl)ethan-1-one]
0.32 µM | 0.0035 | Cc1c(C(=O)N2CC(c3nn(CC(=O)N4CCC[C@H]4C(F)(F)F)c4cc(F)cc(F)c34)C2)ccnc1N [Compound E-77, 2-{3-[1-(2-amino-3-methylpyridine-4-carbonyl)azetidin-3-yl]-4,6-difluoro-1H-indazol-1-yl}-1-{(2S)-2-(trifluoromethyl)pyrrolidin-1-yl]ethan-1-one hydrochloride]
0.38 µM | 0.013 | Cc1cnc(N)cc1C(=O)N1CC(c2nn(CC(=O)N3CCC[C@H]3C(F)(F)F)c3cc(F)cc(F)c23)C1 [Compound E-78, 2-{3-[1-(2-amino-5-methylpyridine-4-carbonyl)azetidin-3-yl]-4,6-difluoro-1H-indazol-1-yl}-1-[(2S)-2-(trifluoromethyl)pyrrolidin-1-yl]ethan-1-one hydrochloride]
3.4 µM | 0.035 | C[C@H]1CN(C(=O)Cn2nc(C3CN(C(=O)c4ccnc(N)c4)C3)c3c(F)cc(F)cc32)CCO1 [Compound E-79, 2-{3-[1-(2-aminopyridine-4-carbonyl)azetidin-3-yl]-4,6-difluoro-1H-indazol-1-yl}-1-[(2S)-2-methylmorpholin-4-yl]ethan-1-one hydrochloride]
4.2 µM | 0.036 | C[C@@H]1COCCN1C(=O)Cn1nc(C2CN(C(=O)c3ccnc(N)c3)C2)c2c(F)cc(F)cc21 [Compound E-80, 2-{3-[1-(2-aminopyridine-4-carbonyl)azetidin-3-yl]-4,6-difluoro-1H-indazol-1-yl}-1-[(3R)-3-methylmorpholin-4-yl]ethan-1-one hydrochloride]
0.061 µM | 0.0015 | Nc1cc(C(=O)N2CCC(c3nn(CC(=O)N4CCC[C@H]4C(F)(F)F)c4cccc(F)c34)CC2)ccn1 [Compound E-81, 2-{3-[1-(2-aminopyridine-4-carbonyl)piperidin-4-yl]-4-fluoro-1H-indazol-1-yl}-1-[(28)-2-(trifluoromethyl)pyrrolidin-1-yl]ethan-1-one]
0.13 µM | 0.0008 | Nc1cc(C(=O)N2CC(c3nn(CC(=O)N4CCO[C@H](C(F)(F)F)C4)c4cc(F)cc(F)c34)C2)ccn1 [Compound E-82, 2-{3-[1-(2-aminopyridine-4-carbonyl)azetidin-3-yl]-4,6-difluoro-1H-indazol-1-yl}-1-[(2S)-2-(trifluoromethyl)morpholin-4-yl]ethan-1-one]
0.074 µM | 0.0003 | CC(C)[C@@H]1COCCN1C(=O)Cn1nc(C2CN(C(=O)c3ccnc(N)c3)C2)c2c(F)cc(F)cc21 [Compound E-83, 2-{3-[1-(2-aminopyridine-4-carbonyl)azetidin-3-yl]-4,6-difluoro-1H-indazol-1-yl]-1-[(3R)-3-(propan-2-yl)morpholin-4-yl]ethan-1-one]
2.3 µM | 0.0003 | C[C@@H]1CN(C(=O)Cn2nc(C3CN(C(=O)c4ccnc(N)c4)C3)c3c(F)cc(F)cc32)C[C@H](C)O1 [Compound E-84, 2-{3-[1-(2-aminopyridine-4-carbonyl)azetidin-3-yl)-4,6-difluoro-1H-indazol-1-yl}-1-[(2R,68)-2,6-dimethylmorpholin-4-yl]ethan-1-one]
0.093 µM | 0.022 | CN(CC(F)(F)F)C(=O)Cn1nc(C2CN(C(=O)c3ccnc(N)c3)C2)c2c(F)cccc21 [Compound E-87, 2-{3-[1-(2-aminopyridine-4-carbonyl)azetidin-3-yl]-4-fluoro-1H-indazol-1-yl}-N-methyl-N-(2,2,2-trifluoroethyl)acetamide]
1.4 µM | 0.021 | O=C(c1ccnc(NC2CCOCC2)c1)N1CC(c2nn(CC(=O)N3CCC[C@H]3C(F)(F)F)c3cc(F)cc(F)c23)C1 [Compound E-88, 2-[4,6-difluoro-3-(1-{2-[(oxan-4-yl)amino]pyridine-4-carbonyl}azetidin-3-yl)-1H-indazol-1-yl]-1-[(2S)-2-(trifluoromethyl)pyrrolidin-1-yl]ethan-1-one]
0.4 µM | 0.045 | Cc1c(C(=O)N2CC(c3nn(CC(=O)N4CCO[C@H](C(F)(F)F)C4)c4cc(F)cc(F)c34)C2)ccnc1N [Compound E-89, 2-{3-[1-(2-amino-3-methylpyridine-4-carbonyl)azetidin-3-yl]-4,6-difluoro-1H-indazol-1-yl]-1-[(2S)-2-(trifluoromethyl)morpholin-4-yllethan-1-one hydrochloride]
0.096 µM | 0.0074 | Nc1cc(C(=O)N2CCC(c3nn(CC(=O)N4CCO[C@H](C(F)(F)F)C4)c4cccc(F)c34)CC2)ccn1 [Compound E-90, 2-{3-[1-(2-aminopyridine-4-carbonyl)piperidin-4-yl]-4-fluoro-1H-indazol-1-yl]-1-[(2S)-2-(trifluoromethyl)morpholin-4-yl]ethan-1-one]
0.61 µM | 0.011 | Nc1cc(C(=O)N2CCC(c3nn(CC(=O)N4CCO[C@@H](C(F)(F)F)C4)c4cccc(F)c34)CC2)ccn1 [Compound E-91, 2-{3-[1-(2-aminopyridine-4-carbonyl)piperidin-4-yl]-4-fluoro-1H-indazol-1-yl]-1-[(2R)-2-(trifluoromethyl)morpholin-4-yl]ethan-1-one]
